Test results reported in PubChem BioAssay (NCI).
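Cells were grown in 96-well plates and exposed to each compound for 48 hours at five concentrations; endpoints were interpolated linearly between bracketing concentrations, or set to the highest concentration if not reached. GI50 is the concentration that inhibits growth by half. At the TGI there is no net growth.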

Key:
Assay in all cases: growth of human tumour cells (NCI), 48 h
BT-549 breast = tested on: BT-549 breast
MOLT-4 leukemia = tested on: MOLT-4 leukemia
KM12 colon = tested on: KM12 colon
NCI-H226 lung = tested on: NCI-H226 lung
MDA-MB-435 = tested on: MDA-MB-435
RXF 393 renal = tested on: RXF 393 renal
U251 CNS = tested on: U251 CNS
UO-31 renal = tested on: UO-31 renal
SF-539 CNS = tested on: SF-539 CNS
RPMI-8226 leukemia = tested on: RPMI-8226 leukemia
COLO 205 colon = tested on: COLO 205 colon
MDA-MB-231 breast = tested on: MDA-MB-231 breast
SK-MEL-28 melanoma = tested on: SK-MEL-28 melanoma
ACHN renal = tested on: ACHN renal
OVCAR-5 ovarian = tested on: OVCAR-5 ovarian
PC-3 prostate = tested on: PC-3 prostate
IGROV1 ovarian = tested on: IGROV1 ovarian
UACC-62 melanoma = tested on: UACC-62 melanoma
OVCAR-8 ovarian = tested on: OVCAR-8 ovarian
HCT-15 colon = tested on: HCT-15 colon
OVCAR-3 ovarian = tested on: OVCAR-3 ovarian
NCI-H23 lung = tested on: NCI-H23 lung
LOX IMVI melanoma = tested on: LOX IMVI melanoma
HS 578T breast = tested on: HS 578T breast
UACC-257 melanoma = tested on: UACC-257 melanoma
HCT-116 colon = tested on: HCT-116 colon
HL-60(TB) leukemia = tested on: HL-60(TB) leukemia
HT29 colon = tested on: HT29 colon
MCF7 breast = tested on: MCF7 breast
T-47D breast = tested on: T-47D breast
SF-295 CNS = tested on: SF-295 CNS
A498 renal = tested on: A498 renal
SN12C renal = tested on: SN12C renal
HOP-62 NSCLC = tested on: HOP-62 NSCLC
SF-268 CNS = tested on: SF-268 CNS
SW-620 colon = tested on: SW-620 colon
SK-OV-3 ovarian = tested on: SK-OV-3 ovarian
HCC-2998 colon = tested on: HCC-2998 colon
NCI-H460 lung = tested on: NCI-H460 lung
SNB-19 CNS = tested on: SNB-19 CNS
K-562 leukemia = tested on: K-562 leukemia
SK-MEL-5 melanoma = tested on: SK-MEL-5 melanoma
CCRF-CEM leukemia = tested on: CCRF-CEM leukemia
NCI-H522 lung = tested on: NCI-H522 lung
SK-MEL-2 melanoma = tested on: SK-MEL-2 melanoma
TK-10 renal = tested on: TK-10 renal
M14 melanoma = tested on: M14 melanoma
EKVX NSCLC = tested on: EKVX NSCLC
OVCAR-4 ovarian = tested on: OVCAR-4 ovarian
DU-145 prostate = tested on: DU-145 prostate
CAKI-1 renal = tested on: CAKI-1 renal
SNB-75 CNS = tested on: SNB-75 CNS
HOP-92 NSCLC = tested on: HOP-92 NSCLC
NCI/ADR-RES ovarian = tested on: NCI/ADR-RES ovarian
SR leukemia = tested on: SR leukemia
MALME-3M melanoma = tested on: MALME-3M melanoma
A549 NSCLC = tested on: A549 NSCLC
786-0 renal = tested on: 786-0 renal
MDA-MB-468 breast = tested on: MDA-MB-468 breast

COc1cc(-c2nc3cc(Cl)c(Cl)cc3[nH]2)ccc1OCc1nnc(-c2ccc(Br)cc2)o1
GI50 (BT-549 breast): 3.2 µM
TGI (BT-549 breast): 7.74 µM
GI50 (MOLT-4 leukemia): 3.72 µM
TGI (MOLT-4 leukemia): > 100 µM
GI50 (KM12 colon): 52 µM
TGI (KM12 colon): > 100 µM
GI50 (NCI-H226 lung): 1.82 µM
TGI (NCI-H226 lung): 4.81 µM
GI50 (MDA-MB-435): 3.97 µM
TGI (MDA-MB-435): 20 µM
GI50 (RXF 393 renal): 1.87 µM
TGI (RXF 393 renal): 4.61 µM
GI50 (U251 CNS): 3.82 µM
TGI (U251 CNS): 20 µM
GI50 (UO-31 renal): 1.89 µM
TGI (UO-31 renal): 4.61 µM
GI50 (SF-539 CNS): 1.81 µM
TGI (SF-539 CNS): 3.51 µM
GI50 (RPMI-8226 leukemia): 2.68 µM
TGI (RPMI-8226 leukemia): 8.25 µM
GI50 (COLO 205 colon): 24.6 µM
TGI (COLO 205 colon): > 100 µM
GI50 (MDA-MB-231 breast): 2.22 µM
TGI (MDA-MB-231 breast): 5.3 µM
GI50 (SK-MEL-28 melanoma): 3.59 µM
TGI (SK-MEL-28 melanoma): 19 µM
GI50 (ACHN renal): 2.19 µM
TGI (ACHN renal): 4.99 µM
GI50 (OVCAR-5 ovarian): 5.59 µM
TGI (OVCAR-5 ovarian): > 100 µM
GI50 (PC-3 prostate): 4.27 µM
TGI (PC-3 prostate): > 100 µM
GI50 (IGROV1 ovarian): 11.5 µM
TGI (IGROV1 ovarian): > 100 µM
GI50 (UACC-62 melanoma): 3.05 µM
TGI (UACC-62 melanoma): 13.5 µM
GI50 (OVCAR-8 ovarian): 2.85 µM
TGI (OVCAR-8 ovarian): 7.78 µM
GI50 (HCT-15 colon): 2.53 µM
TGI (HCT-15 colon): 7.36 µM
GI50 (OVCAR-3 ovarian): 3.33 µM
TGI (OVCAR-3 ovarian): 10.9 µM
GI50 (NCI-H23 lung): 4.99 µM
TGI (NCI-H23 lung): > 100 µM
GI50 (LOX IMVI melanoma): 2.93 µM
TGI (LOX IMVI melanoma): 10.8 µM
GI50 (HS 578T breast): 2.72 µM
TGI (HS 578T breast): 8.27 µM
GI50 (UACC-257 melanoma): 11.7 µM
TGI (UACC-257 melanoma): 35.6 µM
GI50 (HCT-116 colon): 4.43 µM
TGI (HCT-116 colon): 31.7 µM
GI50 (HL-60(TB) leukemia): 2.61 µM
TGI (HL-60(TB) leukemia): 7.52 µM
GI50 (HT29 colon): 3.61 µM
TGI (HT29 colon): > 100 µM
GI50 (MCF7 breast): 3.28 µM
TGI (MCF7 breast): 27.5 µM
GI50 (T-47D breast): 2.06 µM
TGI (T-47D breast): 4.95 µM
GI50 (SF-295 CNS): 3.13 µM
TGI (SF-295 CNS): 10.7 µM
GI50 (A498 renal): 2.9 µM
TGI (A498 renal): 9.17 µM
GI50 (SN12C renal): 2.56 µM
TGI (SN12C renal): 7.33 µM
GI50 (HOP-62 NSCLC): 4.17 µM
TGI (HOP-62 NSCLC): 17.8 µM
GI50 (SF-268 CNS): 6.22 µM
TGI (SF-268 CNS): > 100 µM
GI50 (SW-620 colon): 5.07 µM
TGI (SW-620 colon): > 100 µM
GI50 (SK-OV-3 ovarian): 11.5 µM
TGI (SK-OV-3 ovarian): 38.3 µM
GI50 (HCC-2998 colon): 29.2 µM
TGI (HCC-2998 colon): > 100 µM
GI50 (NCI-H460 lung): 6.43 µM
TGI (NCI-H460 lung): > 100 µM
GI50 (SNB-19 CNS): 14.7 µM
TGI (SNB-19 CNS): > 100 µM
GI50 (K-562 leukemia): 4.8 µM
TGI (K-562 leukemia): > 100 µM
GI50 (SK-MEL-5 melanoma): 3.16 µM
TGI (SK-MEL-5 melanoma): 13.2 µM
GI50 (CCRF-CEM leukemia): 6.07 µM
TGI (CCRF-CEM leukemia): > 100 µM
GI50 (NCI-H522 lung): 4.53 µM
TGI (NCI-H522 lung): > 100 µM
GI50 (SK-MEL-2 melanoma): 15.7 µM
TGI (SK-MEL-2 melanoma): 35 µM
GI50 (TK-10 renal): 4.37 µM
TGI (TK-10 renal): 17.5 µM
GI50 (M14 melanoma): 6.68 µM
TGI (M14 melanoma): 25.3 µM
GI50 (EKVX NSCLC): 13.3 µM
TGI (EKVX NSCLC): > 100 µM
GI50 (OVCAR-4 ovarian): 1.92 µM
TGI (OVCAR-4 ovarian): 4.12 µM
GI50 (DU-145 prostate): 10.1 µM
TGI (DU-145 prostate): > 100 µM
GI50 (CAKI-1 renal): 13 µM
TGI (CAKI-1 renal): 28.3 µM
GI50 (SNB-75 CNS): 1.56 µM
TGI (SNB-75 CNS): 3.87 µM
GI50 (HOP-92 NSCLC): 2.35 µM
TGI (HOP-92 NSCLC): 7.81 µM
GI50 (NCI/ADR-RES ovarian): 3.42 µM
TGI (NCI/ADR-RES ovarian): > 100 µM
GI50 (SR leukemia): 2.21 µM
TGI (SR leukemia): 5.9 µM
GI50 (MALME-3M melanoma): 3.25 µM
TGI (MALME-3M melanoma): 16.4 µM
GI50 (A549 NSCLC): 7.14 µM
TGI (A549 NSCLC): > 100 µM
GI50 (786-0 renal): 3.55 µM
TGI (786-0 renal): 13.1 µM
GI50 (MDA-MB-468 breast): 5.98 µM
TGI (MDA-MB-468 breast): 28.4 µM
